Measured values from US20250122221A1 (NANJING ZAIMING PHARMACEUTICAL CO., LTD., priority 2022, published 2025).
Read-outs that look alike come from different tables or passages of the source.

Columns and labels:
DLD-1 parental cells = test: Inhibition of tumour cell proliferation, 7 days, CTG; assay type: cell-based; conditions: Homo sapiens, read-out: DLD-1 parental cell IC50
Method: (§1) Brief introduction to the experimental principle: The compounds were co-incubated with tumour cells for 7 days, and then a CTG kit from Promega Inc was used to quantify ATP in viable cells, thus reflecting the effect of the compounds on tumour cell proliferation.
(§2) Experimental method: DLD-1 parental cells or DLD-1 BRCA2 (−/−) cells were diluted with RPMI 1640 medium containing 10% FBS, and then added to a 96-well plate (90 μL/well), with the number of cells being 600 cells/well or 1200 cells/well, respectively, and cultured overnight in a 37° C., 5% CO2 incubator. The compounds to be tested were diluted to different concentrations in dimethyl sulfoxide (DMSO), and then added to a 96-well plate. The final concentration of the compounds in the reaction system started from 25 μM, and was subjected to 4-fold gradient dilution. The concentration range of the compounds was from 25 μM to 0.0004 μM, and the final concentration of DMSO was 0.25% v/v. After 7 days of incubation, 50 μL/well CTG was added, and the mixture was incubated at room temperature for 10 minutes. Subsequently, the luminescence (Lum) signal value was read with an Envision microplate reader, and the inhibition rate and half inhibitory concentration (IC50) were calculated.
(§3) The inhibition rate was calculated, and XLfit software was used to perform fitting to obtain IC50 of the compounds.
(§4) In the experiment, a blank well and a DMSO well were set up, respectively.
(§5) Inhibition rate=100*(Lummax−Lumcompound)/(Lummax−Lummin)%, • where Lummax refers to the luminescence signal value of the well containing cells and 0.25% v/v DMSO; Lumcompound refers to the luminescence signal value of the well containing the compound and cells; and Lummin refers to the luminescence signal value of the well containing the medium and 0.25% v/v DMSO.

DLD-1 BRCA2 (−/−) cells = test: as above; assay type: cell-based; conditions: Homo sapiens, read-out: DLD-1 BRCA2 (−/−) IC50
Method: as §1, §2, §3, §4, §5

[1] = target: N-terminal active peptide segment (MI-N899) of POLQ with ATPase activity (Homo sapiens (Human), UniProt O75417); test: POLQ enzyme activity inhibition experiment (ATPase, NADH-coupled, OD 340 nm); assay type: biochemical; conditions: 100 nM POLQ (N), 100 μM ATP, 300 nM dT50
[2] = 168 h, DLD-1 parental cells, 7 days of incubation, CTG
[3] = 168 h, DLD-1 BRCA2 (−/−) cells, 7 days of incubation, CTG

Sequence of N-terminal active peptide segment (MI-N899) of POLQ with ATPase activity (O75417 1-899 limits assumed): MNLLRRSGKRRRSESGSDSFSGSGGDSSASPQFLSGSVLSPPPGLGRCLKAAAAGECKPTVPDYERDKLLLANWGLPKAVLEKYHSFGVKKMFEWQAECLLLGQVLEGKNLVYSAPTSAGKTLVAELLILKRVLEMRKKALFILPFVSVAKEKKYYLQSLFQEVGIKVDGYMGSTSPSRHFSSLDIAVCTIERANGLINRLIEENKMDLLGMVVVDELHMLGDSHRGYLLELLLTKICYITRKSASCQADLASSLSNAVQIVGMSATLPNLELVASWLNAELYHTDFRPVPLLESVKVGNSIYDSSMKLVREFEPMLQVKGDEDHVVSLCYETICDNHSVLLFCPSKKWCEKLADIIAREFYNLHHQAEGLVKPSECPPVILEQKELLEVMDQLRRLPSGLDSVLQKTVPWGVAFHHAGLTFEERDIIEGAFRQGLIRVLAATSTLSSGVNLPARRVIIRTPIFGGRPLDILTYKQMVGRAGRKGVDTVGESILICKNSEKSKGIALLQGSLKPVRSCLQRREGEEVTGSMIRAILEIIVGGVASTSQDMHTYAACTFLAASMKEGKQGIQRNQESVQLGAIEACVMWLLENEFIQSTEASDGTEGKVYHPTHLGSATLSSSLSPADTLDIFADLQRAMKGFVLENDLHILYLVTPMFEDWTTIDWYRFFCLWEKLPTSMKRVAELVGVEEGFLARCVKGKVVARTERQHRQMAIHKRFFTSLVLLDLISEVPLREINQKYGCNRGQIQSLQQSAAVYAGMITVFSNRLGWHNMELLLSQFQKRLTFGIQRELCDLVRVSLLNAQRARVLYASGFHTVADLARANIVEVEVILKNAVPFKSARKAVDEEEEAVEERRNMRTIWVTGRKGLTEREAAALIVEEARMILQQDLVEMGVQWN

Row | Structure (SMILES) | IC50 (DLD-1 BRCA2 (−/−) cells; [3]) [nM] | IC50 [1] [nM] | IC50 (DLD-1 parental cells; [2]) [nM] | IC50 (DLD-1 parental cells; DLD-1, 168 h) [nM] | IC50 (DLD-1 BRCA2 (−/−) cells; DLD-1, 168 h) [nM]
1 | COc1ccc(C#N)cc1-c1cc(C)ncc1C(=O)Nc1nc2ncc(-c3ccc(Cl)cn3)nc2s1 [Compound 62, N-(6-(5-chloropyridin-2-yl)thiazolo[4,5-b]pyrazin-2-yl)-4-(5-cyano-2-methoxyphenyl)-6-methylpyridine-3-carboxamide] | < 200 | < 100 | > 10000 | – | –
2 | COc1cnc(C#N)cc1-c1cc(C)ncc1C(=O)Nc1nc2ncc(-c3ccc(Cl)cc3)nc2s1 [Compound 63, N-(6-(4-chlorophenyl)thiazolo[4,5-b]pyrazin-2-yl)-2′-cyano-5′-methoxy-6-methyl-[4,4′-bipyridine]-3-carboxamide] | 200 to 500 | < 100 | > 10000 | – | –
3 | COc1cnc(C)cc1-c1cc(C)ncc1C(=O)Nc1nc2ncc(-c3ccc(C(C)(C)C#N)cn3)nc2s1 [Compound 68, N-[6-[5-(1-cyano-1-methyl-ethyl)pyridin-2-yl]thiazolo[4,5-b]pyrazin-2-yl]-4-(5-methoxy-2-methylpyridine-4-yl)-6-methyl-pyridine-3-carboxamide] | < 200 | < 100 | > 10000 | – | –
4 | COc1cnc(C(F)(F)F)cc1-c1cc(C)ncc1C(=O)Nc1nc2ncc(-c3ccc(C#N)cc3)nc2s1 [Compound 73, N-(6-(4-cyanophenyl)thiazolo[4,5-b]pyrazin-2-yl)-5′-methoxy-6-methyl-2′-(trifluoromethyl)-[4,4′-bipyridine]-3-carboxamide] | < 200 | < 100 | > 10000 | – | –
5 | Cc1cc(-c2cc(C)ncc2C(=O)Nc2nc3ncc(-c4ccc(C#N)cc4)nc3s2)c(OC(F)F)cn1 [Compound 74, N-(6-(4-cyanophenyl)thiazolo[4,5-b]pyrazin-2-yl)-5′-(difluoromethoxy)-2′,6-dimethyl-[4,4′-bipyridine]-3-carboxamide] | < 200 | < 100 | > 10000 | – | –
6 | COc1ccc(-c2cnc3nc(NC(=O)c4cnc(C)cc4-c4cc(C)ncc4OC)sc3n2)nc1 [Compound 75, 5′-methoxy-N-[6-(5-methoxypyridin-2-yl)thiazolo[4,5-b]pyrazin-2-yl]-2′,6-dimethyl-[4,4′-bipyridine]-3-carboxamide] | – | < 100 | – | > 10000 | < 200
7 | COc1ccc(Cl)cc1-c1cc(C)ncc1C(=O)Nc1nc2ncc(-c3ccc(C4CC4)cn3)nc2s1 [Compound 77, 4-(5-chloro-2-methoxyphenyl)-N-[6-(5-cyclopropylpyridin-2-yl)thiazolo[4,5-b]pyrazin-2-yl]-6-methylpyridine-3-carboxamide] | < 200 | < 100 | > 10000 | – | –
8 | COc1ccc(Cl)cc1-c1cc(C)ncc1C(=O)Nc1nc2ncc(-c3ccc(C(C)(C)O)cn3)nc2s1 [Compound 78, 4-(5-chloro-2-methoxyphenyl)-N-(6-(5-(2-hydroxyprop-2-yl)pyridin-2-yl)thiazolo[4,5-b]pyrazin-2-yl)-6-methylpyridine-3-carboxamide] | < 200 | < 100 | > 10000 | – | –
9 | COc1ccc(Cl)cc1-c1cc(C)ncc1C(=O)Nc1nc2ncc(-c3ccc(C4CC4)cc3)nc2s1 [Compound 79, 4-(5-chloro-2-methoxyphenyl)-N-(6-(4-cyclopropylphenyl)thiazolo[4,5-b]pyrazin-2-yl)-6-methylpyridine-3-carboxamide] | < 200 | < 100 | > 10000 | – | –
10 | COc1ccc(Cl)cc1-c1cc(C)ncc1C(=O)Nc1nc2ncc(-c3ccc(OC(F)F)cc3)nc2s1 [Compound 80, 4-(5-chloro-2-methoxyphenyl)-N-(6-(4-(difluoromethoxy)phenyl)thiazolo[4,5-b]pyrazin-2-yl)-6-methylpyridine-3-carboxamide] | < 200 | < 100 | > 10000 | – | –
11 | COc1cnc(C)cc1-c1cc(C)ncc1C(=O)Nc1nc2ncc(-c3ccc(OC(F)(F)F)cc3)nc2s1 [Compound 81, 5′-methoxy-2′,6-dimethyl-N-(6-(4-(trifluoromethoxy)phenyl)thiazolo[4,5-b]pyrazin-2-yl)-[4,4′-bipyridine]-3-carboxamide] | < 200 | < 100 | > 10000 | – | –
12 | COc1cnc(C)cc1-c1cc(C)ncc1C(=O)Nc1nc2ncc(-c3ccc(C4CC4)cc3)nc2s1 [Compound 82, N-(6-(4-cyclopropylphenyl)thiazolo[4,5-b]pyrazin-2-yl)-5′-methoxy-2′,6-dimethyl-[4,4′-bipyridine]-3-carboxamide] | < 200 | < 100 | > 10000 | – | –
13 | COc1cnc(C2CC2)cc1-c1cc(C)ncc1C(=O)Nc1nc2ncc(-c3ccc(C4CC4)cc3)nc2s1 [Compound 83, 2′-cyclopropyl-N-(6-(4-cyclopropylphenyl)thiazolo[4,5-b]pyrazin-2-yl)-5′-methoxy-6-methyl-[4,4′-bipyridine]-3-carboxamide] | < 200 | < 100 | > 10000 | – | –
14 | COc1ccc(C2CC2)cc1-c1cc(C)ncc1C(=O)Nc1nc2ncc(-c3ccc(C#N)cc3)nc2s1 [Compound 84, N-(6-(4-cyanophenyl)thiazolo[4,5-b]pyrazin-2-yl)-4-(5-cyclopropyl-2-methoxyphenyl)-6-methylpyridine-3-carboxamide] | < 200 | < 100 | > 10000 | – | –
15 | Cc1cc(-c2cc(Cl)ccc2Cl)c(C(=O)Nc2nc3ncc(-c4ccc(C#N)cc4)nc3s2)cn1 [Compound 87, N-(6-(4-cyanophenyl)thiazolo[4,5-b]pyrazin-2-yl)-4-(2,5-dichlorophenyl)-6-methylpyridine-3-carboxamide] | < 200 | < 100 | > 10000 | – | –

The next lines start with results.

Row | IC50 (DLD-1 BRCA2 (−/−) cells; [3]) [nM] | IC50 [1] [nM] | Structure (SMILES) | IC50 (DLD-1 parental cells; [2]) [nM] | IC50 (DLD-1 parental cells; DLD-1, 168 h) [nM] | IC50 (DLD-1 BRCA2 (−/−) cells; DLD-1, 168 h) [nM]
16 | 200 to 500 | < 100 | C#Cc1ccccc1-c1cc(C)ncc1C(=O)Nc1nc2ncc(-c3ccc(C#N)cc3)nc2s1 [Compound 42, N-(6-(4-cyanophenyl)thiazolo[4,5-b]pyrazin-2-yl)-4-(2-ethynylphenyl)-6-methylpyridine-3-carboxamide] | > 10000 | – | –
17 | < 200 | < 100 | COc1ccc(C#N)cc1-c1cc(C)ncc1C(=O)Nc1nc2ncc(-c3ccc(Cl)cc3)nc2s1 [Compound 46, N-(6-(4-chlorophenyl)thiazolo[4,5-b]pyrazin-2-yl)-4-(5-cyano-2-methoxyphenyl)-6-methylpyridine-3-carboxamide] | > 10000 | – | –
18 | 200 to 500 | < 100 | C#Cc1ccc(F)cc1-c1cc(C)ncc1C(=O)Nc1nc2ncc(-c3ccc(C#N)cc3)nc2s1 [Compound 48, N-(6-(4-cyanophenyl)thiazolo[4,5-b]pyrazin-2-yl)-4-(2-ethynyl-5-fluorophenyl)-6-methylpyridine-3-carboxamide] | > 10000 | – | –
19 | < 200 | < 100 | COc1ccc(C#N)cc1-c1cc(C)ncc1C(=O)Nc1nc2ncc(-c3ccc(C#N)cc3)nc2s1 [Compound 58, 4-(5-cyano-2-methoxyphenyl)-N-(6-(4-cyanophenyl)thiazolo [4,5-b]pyrazin-2-yl)-6-methylpyridine-3-carboxamide] | > 10000 | – | –
20 | < 200 | < 100 | COc1cnc(Cl)cc1-c1cc(C)ncc1C(=O)Nc1nc2ncc(-c3ccc(C#N)cn3)nc2s1 [Compound 61, N-(6-(5-cyanopyridin-2-yl)thiazolo[4,5-b]pyrazin-2-yl)-2′-chloro-5′-methoxy-6-methyl-[4,4-bipyridine]-3-carboxamide] | > 10000 | – | –
21 | < 200 | < 100 | COc1cnc(C2CC2)cc1-c1cc(C)ncc1C(=O)Nc1nc2ncc(-c3ccc(C#N)cc3)nc2s1 [Compound 72, N-(6-(4-cyanophenyl)thiazolo[4,5-b]pyrazin-2-yl)-2′-cyclopropyl-5′-methoxy-6-methyl-[4,4′-bipyridine]-3-carboxamide] | > 10000 | – | –
22 | < 200 | < 100 | COc1ccc(C2CC2)cc1-c1cc(C)ncc1C(=O)Nc1nc2ncc(-c3ccc(OC(F)F)cc3)nc2s1 [Compound 85, 4-(5-cyclopropyl-2-methoxyphenyl)-N-(6-(4-(difluoromethoxy)phenyl)thiazolo[4,5-b]pyrazin-2-yl)-6-methylpyridine-3-carboxamide] | > 10000 | – | –
23 | < 200 | < 100 | COc1ccc(C(F)(F)F)cc1-c1cc(C)ncc1C(=O)Nc1nc2ncc(-c3ccc(C#N)cc3)nc2s1 [Compound 86, N-(6-(4-cyanophenyl)thiazolo[4,5-b]pyrazin-2-yl)-4-(2-methoxy-5-(trifluoromethyl)phenyl)-6-methylpyridine-3-carboxamide] | > 10000 | – | –
